According to publication PMC10265003 (Royal Society Open Science, 2023):
pIC50: −log10 of the molar value. Read-outs that look alike come from different tables or passages of the source. Positions of bridges follow the written chain, without caps; N, C: chain ends. Non-standard residues stand in square brackets, D forms with d. Residues, ends and D or L forms follow the SMILES beside them. Chains are numbered I, II in the order given. Bpa = N[C@@H](Cc1ccc(C(=O)c2ccccc2)cc1)C(=O)O; Dip = N[C@H](C(=O)O)C(c1ccccc1)c1ccccc1; hPhe = N[C@@H](CCc1ccccc1)C(=O)O; Ahx = NCCCCCC(=O)O

What was measured:
MCF-7 breast cancer line = type: cell-based, human
Experimental: (§1) The MTT assay was performed in accordance with previous reports. Briefly, the cells were seeded with a complete medium in 96-well plates at a rate of 10 000 cells and 100 µl per well, and adhesion to the plates was allowed for 24 h. Later, the complete medium was removed, and an incomplete medium was added for synchronization for another 24 h. The cells were then incubated at 37°C for 2 h with 100 µl of peptide at the evaluated concentrations (200, 100, 50, 25, 12.5 and 6.25 µg ml^−1). Next, the peptide was removed from the well and 100 µl of incomplete medium with 10% MTT was added and incubated for 4 h. The medium was replaced with 100 µl of isopropanol, and after 30 min of incubation at 37°C, the absorbance was measured at 575 nm. As a negative control, an incomplete culture medium with 10% MTT was used, and as a positive control, cells without MTT treatment were used. The IC50 value was determined from figure 1 (peptide concentration versus per cent cell viability) using a nonlinear regression model with variable slope and GraphPad Prism 9 statistical analysis software.

human erythrocytes = type: cell-based
Experimental: Haemolysis assays were performed in accordance with Cárdenas et al.. The blood was donated by healthy volunteers with blood type O^+. First, 5 ml of peripheral blood in EDTA was centrifuged at 500 r.p.m. for 15 min, and the erythrocytes were separated and washed three times with 0.9% saline solution. Then 100 µl of peptide solution (final concentrations of 200 at 6.2 µg ml^−1) was mixed with 100 µl of erythrocytes (2% haematocrit) and incubated at 37°C for 2 h. It was then centrifuged at 2500 r.p.m. for 5 min and the absorbance of the supernatant was measured at 450 nm. Two controls were used; positive control: distilled water, and negative control: saline solution 0.9%.

pepsin = pepsin (Sus scrofa, UniProt P00791); settings: pH 2
Sequence of pepsin (P00791 60-385): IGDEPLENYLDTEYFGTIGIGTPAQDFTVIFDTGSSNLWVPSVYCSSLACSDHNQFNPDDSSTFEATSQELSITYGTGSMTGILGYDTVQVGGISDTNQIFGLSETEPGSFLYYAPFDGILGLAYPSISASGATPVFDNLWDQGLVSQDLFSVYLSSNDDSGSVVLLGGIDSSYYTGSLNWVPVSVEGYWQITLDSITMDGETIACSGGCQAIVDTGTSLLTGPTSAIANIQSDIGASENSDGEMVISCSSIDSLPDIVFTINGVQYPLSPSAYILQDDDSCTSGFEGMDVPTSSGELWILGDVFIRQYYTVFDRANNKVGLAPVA
Experimental: Pepsin was dissolved in 0.010 M HCl (pH 2.0). An aliquot of 50 µl was added to each peptide solution in a 1 : 100 (w/w) ratio. The peptides were dissolved in H2O-TFA 0.05% (v/v). This was incubated at 37°C for 3 h, aliquots were taken at 0 and 3 h, and the samples were heated for 5 min and then cooled at 4°C for the thermal inactivation of pepsin and characterized via HPLC and LC-MS.

[1] = tested on: HEK-293 human kidney cell line; type: cell-based; settings: for IC50 HEK-293: 2 h
Experimental: as §1, with “The cells were then incubated at 37°C for 2 h with 100 µl of peptide at the evaluated concentrations (200, 100, 50, 25, 12.5 and 6.25 µg ml^−1).” left out

CD1 mice = experiment: Peptide toxicity in vivo model (Irwin test, survival)
Experimental: Experiment 1. CD1 mice male (eight weeks old, weighing 33–35 g) were housed in groups of six animals per cage for each peptide ^26[F] and ^26[1-Nal]; three mice were inoculated by intraperitoneal via ip, and three mice were inoculated by subcutaneous via sc. Mice inoculated via ip or sc with saline solution were used as control. The peptide was dissolved in saline solution (7 mg ml^−1) and the mice were inoculated only one time with 0.33–0.35 ml (dosage 70 mg kg^−1) via ip or sc. Experiment 2. CD1 mice female (n = 4, eight weeks old, weighing 33–35 g) were inoculated only one time with peptide ^26[F] (dosage 140 mg kg^−1) or ^26[1-Nal] (8.8 to 70 mg kg^−1).
To determine the toxicity of peptides ^26[F] and ^26[1-Nal] in vivo model, a preliminary study was carried out in CD1 male mice. The Irwin test was used to evaluate in qualitative manner the effect of peptide administration over motor functions, behaviour, physiology and pharmacological safety in rodents. This test is used as a first approach to study of the adverse effects generated by a pharmaceutical treatment in an in vivo model in preclinical test.

trypsin = trypsin (Sus scrofa, UniProt P00761)
Sequence of trypsin (P00761 9-231): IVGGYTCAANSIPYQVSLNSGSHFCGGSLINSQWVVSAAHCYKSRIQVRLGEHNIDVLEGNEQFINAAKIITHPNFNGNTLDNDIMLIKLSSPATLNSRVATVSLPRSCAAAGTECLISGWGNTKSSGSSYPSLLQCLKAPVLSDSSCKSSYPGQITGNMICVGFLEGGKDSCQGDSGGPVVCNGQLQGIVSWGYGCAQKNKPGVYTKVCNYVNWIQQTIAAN
Experimental: Trypsin (20 μg) was dissolved in 450 µl of the buffer supplied by the manufacturer, and 50 µl was added to each peptide solution, maintaining a protease : peptide ratio of 1 : 100 (w/w). The samples were incubated at 37°C for 24 h. Aliquots were taken at 0, 5, 10, 15 and 20 min, the enzymatic reaction was stopped by adding 1 M HCl, and the mixture was analysed via RP-HPLC and LC-MS. Bovine serum albumin (BSA) and bovine lactoferrin (bLF) were used as the positive control, and the negative control was the peptide in buffer solution without trypsin.

[2] = tested on: human primary fibroblasts; type: cell-based; settings: for IC50 fibroblasts: 2 h
Description: Rink amide resin, Fmoc-Arg(Pbf)-OH, Fmoc-Trp(Boc)-OH, Fmoc-Gln(Trt)-OH, Fmoc-Phe-OH, Fmoc-Lys(Boc)-OH, Fmoc-Leu-OH, Fmoc-Gly-OH, Fmoc-6-Ahx-OH, Fmoc-Lys(Fmoc)-OH, Triton-X, piperidine, N,N-dimethylformamide (DMF), dichloromethane (DCM), dicyclohexylcarbodiimide (DCC), 1-hydroxy-6-chloro-benzotriazole (6-Cl-HOBt), ninhydrin, potassium cyanide (KCN), ethanol, pyridine, phenol, trifluoroacetic acid (TFA), ethyl ether, triisopropylsilane (TIS), ethanedithiol (EDT), acetonitrile (ACN), methanol (MeOH) and solid phase extraction columns Supelco, Trypsin-EDTA solution and pepsin 2500 units mg^−1 were purchased from Sigma-Aldrich (St Louis, MO, USA). The non-natural amino acids diphenylalanine, 1-naphthyl-phenylalanine, 4-benzoyl-phenylalanine, homophenylalanine (hF), 4-(Fmoc-amino) benzoic acid (4-Abz) and 2-(Fmoc-amino) benzoic acid (2-Abz) were obtained from AAPPTec (Louisville, KY, USA). The cell lines MCF-7, HeLa, HEK-293 were purchased from ATCC (Manassas, VA). The primary cell culture of fibroblasts was obtained from the foreskin by the Laboratory of Cellular Physiology of the National University of Colombia, and the fibroblasts were cultured and frozen. Some vials were thawed and cultured for up to seven passes, since no transformation/immortalization was done. Annexin V and Alexa Fluor 488 conjugate was purchased from Invitrogen (Eugene, Oregon). The DMEM culture medium and trypsin were obtained from Sigma-Aldrich (St Louis, MO, USA). Bovine fetal serum was purchased from Gibco (Waltham, MA, USA). Calcium assay kit and Fluorescein CaspGLOW Active Caspase-8 or Caspase-9 Staining Kit were obtained for BD Biosciences (San Diego, CA, USA) and Invitrogen Thermo Fisher Scientific (Waltham, MA, USA), respectively.
as §1, with “The cells were then incubated at 37°C for 2 h with 100 µl of peptide at the evaluated concentrations (200, 100, 50, 25, 12.5 and 6.25 µg ml^−1).” left out

[3] = tested on: HeLa human cervical cancer cell line; type: cell-based; settings: 2 h
Experimental: as §1

[4] = ratio of IC50 values, in brackets

SMILES	IC50 erythrocytes (human erythrocytes; 2 h)	proteolytic degradation by pepsin (pepsin)	IC50 HEK-293 [1]	proteolytic degradation by trypsin, 10 min (trypsin)	pIC50 (MCF-7 breast cancer line; 2 h)	IC50 MCF-7 (MCF-7 breast cancer line; 2 h)	IC50 fibroblasts [2]	IC50 HeLa [3]	further results
CC(C)C[C@H](NC(=O)[C@H](CCCCN)NC(=O)[C@H](CCCCN)NC(=O)[C@H](Cc1ccc(C(=O)c2ccccc2)cc1)NC(=O)[C@H](CCCNC(=N)N)NC(=O)[C@H](Cc1c[nH]c2ccccc12)NC(=O)[C@H](CCC(N)=O)NC(=O)[C@H](Cc1c[nH]c2ccccc12)NC(=O)[C@H](CCCNC(=N)N)NC(=O)[C@@H](N)CCCNC(=N)N)C(=O)NCC(=O)NCCCC[C@H](NC(=O)CNC(=O)[C@H](CC(C)C)NC(=O)[C@H](CCCCN)NC(=O)[C@H](CCCCN)NC(=O)[C@H](Cc1ccc(C(=O)c2ccccc2)cc1)NC(=O)[C@H](CCCNC(=N)N)NC(=O)[C@H](Cc1c[nH]c2ccccc12)NC(=O)[C@H](CCC(N)=O)NC(=O)[C@H](Cc1c[nH]c2ccccc12)NC(=O)[C@H](CCCNC(=N)N)NC(=O)[C@@H](N)CCCNC(=N)N)C(=O)NCCCCCC(N)=O [^26[Bpa], (RRWQWR-Bpa-KKLG)2-K-Ahx] (I: H-RRWQWR[Bpa]KKLGK[Ahx]-NH2 / II: H-RRWQWR[Bpa]KKLG; amide I:12-II:C)									pIC50 (MCF-7 breast cancer line; MTT, MCF-7, peptide treatment for 2 hours at 37°C, three independent experiments with n = 4, nonlinear regression, read-out: IC50): 4.77
CC(C)C[C@H](NC(=O)[C@H](CCCCN)NC(=O)[C@H](CCCCN)NC(=O)[C@H](Cc1ccccc1)NC(=O)[C@H](CCCNC(=N)N)NC(=O)[C@H](Cc1c[nH]c2ccccc12)NC(=O)[C@H](CCC(N)=O)NC(=O)[C@H](Cc1c[nH]c2ccccc12)NC(=O)[C@H](CCCNC(=N)N)NC(=O)[C@@H](N)CCCNC(=N)N)C(=O)NCC(=O)NCCCC[C@H](NC(=O)CNC(=O)[C@H](CC(C)C)NC(=O)[C@H](CCCCN)NC(=O)[C@H](CCCCN)NC(=O)[C@H](Cc1ccccc1)NC(=O)[C@H](CCCNC(=N)N)NC(=O)[C@H](Cc1c[nH]c2ccccc12)NC(=O)[C@H](CCC(N)=O)NC(=O)[C@H](Cc1c[nH]c2ccccc12)NC(=O)[C@H](CCCNC(=N)N)NC(=O)[C@@H](N)CCCNC(=N)N)C(=O)NCCCCCC(N)=O [^26[F], (RRWQWR-F-KKLG)2-K-Ahx] (I: H-RRWQWRFKKLGK[Ahx]-NH2 / II: H-RRWQWRFKKLG; amide I:12-II:C)	>200(>58) µg mL^−1	degraded into two fragments	203(59) µg mL^−1	disappeared completely	4.64	79(23) µg mL^−1	121(35) µg mL^−1	24(7) µg mL^−1	selectivity index IC50 erythrocytes/IC50 MCF-7 (human erythrocytes; ratio of IC50 values): > 2.5; selectivity index IC50 erythrocytes/IC50 HeLa (human erythrocytes; [4]): > 8.3; selectivity index IC50 HEK-293/IC50 MCF-7 ([1]; ratio of IC50 values): 2.6; selectivity index IC50 HEK-293/IC50 HeLa [1, 4]: 8.4; observed signs after ip administration (Irwin test) (CD1 mice; experiment 1, male CD1 mice, ip 70 mg kg^−1): motor function decreased 30 min after peptide administration and abdominal contortions were observed; survival (%) ip (CD1 mice; experiment 1, male CD1 mice, single ip dose 70 mg kg^−1, n = 3, one week of observation): 100%; survival (%) sc (CD1 mice; experiment 1, male CD1 mice, single sc dose 70 mg kg^−1, n = 3): 100%; survival (%) ip (CD1 mice; experiment 2, female CD1 mice, single ip dose 140.0 mg kg^−1, n = 4): 0%; observed signs after ip administration (CD1 mice; female mice, ip 140 mg kg^−1, after 30 min of treatment): decreased motor function, abdominal contractions, excess irrigation, marked ataxia and loss of coordination; proteolytic degradation by trypsin, 5 min (trypsin): two fragments were also generated; selectivity index IC50 fibroblasts/IC50 MCF-7 ([2]; ratio of IC50 values): 1.5; selectivity index IC50 fibroblasts/IC50 HeLa [2, 4]: 5.0
CC(C)C[C@H](NC(=O)[C@H](CCCCN)NC(=O)[C@H](CCCCN)NC(=O)[C@@H](NC(=O)[C@H](CCCNC(=N)N)NC(=O)[C@H](Cc1c[nH]c2ccccc12)NC(=O)[C@H](CCC(N)=O)NC(=O)[C@H](Cc1c[nH]c2ccccc12)NC(=O)[C@H](CCCNC(=N)N)NC(=O)[C@@H](N)CCCNC(=N)N)C(c1ccccc1)c1ccccc1)C(=O)NCC(=O)NCCCC[C@H](NC(=O)CNC(=O)[C@H](CC(C)C)NC(=O)[C@H](CCCCN)NC(=O)[C@H](CCCCN)NC(=O)[C@@H](NC(=O)[C@H](CCCNC(=N)N)NC(=O)[C@H](Cc1c[nH]c2ccccc12)NC(=O)[C@H](CCC(N)=O)NC(=O)[C@H](Cc1c[nH]c2ccccc12)NC(=O)[C@H](CCCNC(=N)N)NC(=O)[C@@H](N)CCCNC(=N)N)C(c1ccccc1)c1ccccc1)C(=O)NCCCCCC(N)=O [^26[Dip], (RRWQWR-Dip-KKLG)2-K-Ahx] (I: H-RRWQWR[Dip]KKLGK[Ahx]-NH2 / II: H-RRWQWR[Dip]KKLG; amide I:12-II:C)					4.47				
CC(C)C[C@H](NC(=O)[C@H](CCCCN)NC(=O)[C@H](CCCCN)NC(=O)[C@H](CCc1ccccc1)NC(=O)[C@H](CCCNC(=N)N)NC(=O)[C@H](Cc1c[nH]c2ccccc12)NC(=O)[C@H](CCC(N)=O)NC(=O)[C@H](Cc1c[nH]c2ccccc12)NC(=O)[C@H](CCCNC(=N)N)NC(=O)[C@@H](N)CCCNC(=N)N)C(=O)NCC(=O)NCCCC[C@H](NC(=O)CNC(=O)[C@H](CC(C)C)NC(=O)[C@H](CCCCN)NC(=O)[C@H](CCCCN)NC(=O)[C@H](CCc1ccccc1)NC(=O)[C@H](CCCNC(=N)N)NC(=O)[C@H](Cc1c[nH]c2ccccc12)NC(=O)[C@H](CCC(N)=O)NC(=O)[C@H](Cc1c[nH]c2ccccc12)NC(=O)[C@H](CCCNC(=N)N)NC(=O)[C@@H](N)CCCNC(=N)N)C(=O)NCCCCCC(N)=O [^26[hF], (RRWQWR-hF-KKLG)2-K-Ahx] (I: H-RRWQWR[hPhe]KKLGK[Ahx]-NH2 / II: H-RRWQWR[hPhe]KKLG; amide I:12-II:C)	>200(>59) µg mL^−1	unaffected	134(40) µg mL^−1	two fragments were also generated	4.74	60(18) µg mL^−1	63(19) µg mL^−1	53(16) µg mL^−1	selectivity index IC50 erythrocytes/IC50 HeLa (human erythrocytes; 2 h): > 3.7; selectivity index IC50 erythrocytes/IC50 MCF-7 (human erythrocytes; 2 h): > 3.3; selectivity index IC50 fibroblasts/IC50 HeLa [2]: 1.2; selectivity index IC50 fibroblasts/IC50 MCF-7 [2]: 1.0
